A word on the EC50: it is the concentration that produces a half-maximal response.

This passage reports EC50 results from patent publication US10221172B2, “Benzothiazole and benzisothiazole-substituted compounds as mGluR4 allosteric potentiators, compositions, and methods of treating neurological dysfunction” (Vanderbilt University, priority 2015, dated 2019).

This experiment has as its target human mGluR4 (Homo sapiens (Human), UniProt Q14833). Description: mGluR4 potentiation assay, CHO cells transfected with human mGluR4, Ca2+-sensitive dye, EC20 agonist. The format is cell-based. The settings on record: potentiation of mGluR4. As for the experimental part:
The disclosed compounds and compositions can be evaluated for their ability to act as a potentiator of metabotropic glutamate receptor activity, in particular mGluR4 activity, by any suitable known methodology known in the art. For example, Chinese Hamster Ovary (CHO) cells transfected with human mGluR4 or HEK cells co-transfected with rat mGluR4 and the G-protein regulated Inwardly Rectifying Potassium channel (GIRK) were plated in clear bottom assay plates for assay in a Hamamatsu FDSS Fluorometric Plate Reader. The cells were loaded with either a Ca2+-sensitive fluorescent dye or the thallium responsive dye and the plates were washed and placed into a suitable kinetic plate reader. For human mGluR4 assays, a fluorescence baseline was established for 3-5 seconds, the disclosed compounds were then added to the cells, and the response in cells was measured. Approximately two and a half minutes later, a concentration of mGluR4 orthosteric agonist (e.g. glutamate or L-AP4) eliciting approximately 20% (EC20) of the maximal agonist response was added to the cells, and the response was measured. Two minutes later, a concentration of mGluR4 agonist (e.g. glutamate or L-AP4) eliciting 80% (EC80) of the maximal agonist response was added to the cells, and the response was measured. For rat mGluR4/GIRK experiments, a baseline was established for approximately five seconds, disclosed compounds were added, and either an EC20 or EC80 concentration of agonist was added approximately two and one half minutes later. Potentiation of the agonist response of mGluR4 by the disclosed compounds was observed as an increase in response to the EC20 concentration of agonist in the presence of compound compared to the response to agonist in the absence of compound. Similarly, antagonism of the agonist response of mGluR4 by the disclosed compounds was observed as a decrease in response to the EC80 concentration of agonist in the presence of compound compared to the response to agonist in the absence of compound.
The above described assay operated in two modes. In the first mode, a range of concentrations of the disclosed compounds are added to cells, followed by a single fixed concentration of agonist. If the compound acts as a potentiatior, an EC50 value for potentiation and a maximum extent of potentiation by the compound at this concentration of agonist is determined by non-linear curve fitting. If the compound acts as a noncompetitive antagonist, an IC50 value is determined by non-linear curve fitting. In the second mode, several fixed concentrations of the disclosed compounds are added to various wells on a plate, followed by a range in concentrations of agonist for each concentration of disclosed compound. The EC50 values for the agonist at each concentration of compound are determined by non-linear curve fitting. A decrease in the EC50 value of the agonist with increasing concentrations of the sample compound (a leftward shift of the agonist concentration-response curve) is an indication of the degree of mGluR4 potentiation at a given concentration of the sample compound. A decrease in the maximal response of the agonist with increasing concentrations of the sample compounds, with or without a rightward shift in agonist potency, is an indication of the degree of noncompetitive antagonism at mGluR4. The second mode also indicates whether the sample compounds also affect the maximum response to mGluR4 to agonists.

[1] abbreviates: main compound table, species not given.
The mark [2] stands for this setting: summary list repeated at the end of the table, species not stated.

Chain of human mGluR4 (Q14833 33-912): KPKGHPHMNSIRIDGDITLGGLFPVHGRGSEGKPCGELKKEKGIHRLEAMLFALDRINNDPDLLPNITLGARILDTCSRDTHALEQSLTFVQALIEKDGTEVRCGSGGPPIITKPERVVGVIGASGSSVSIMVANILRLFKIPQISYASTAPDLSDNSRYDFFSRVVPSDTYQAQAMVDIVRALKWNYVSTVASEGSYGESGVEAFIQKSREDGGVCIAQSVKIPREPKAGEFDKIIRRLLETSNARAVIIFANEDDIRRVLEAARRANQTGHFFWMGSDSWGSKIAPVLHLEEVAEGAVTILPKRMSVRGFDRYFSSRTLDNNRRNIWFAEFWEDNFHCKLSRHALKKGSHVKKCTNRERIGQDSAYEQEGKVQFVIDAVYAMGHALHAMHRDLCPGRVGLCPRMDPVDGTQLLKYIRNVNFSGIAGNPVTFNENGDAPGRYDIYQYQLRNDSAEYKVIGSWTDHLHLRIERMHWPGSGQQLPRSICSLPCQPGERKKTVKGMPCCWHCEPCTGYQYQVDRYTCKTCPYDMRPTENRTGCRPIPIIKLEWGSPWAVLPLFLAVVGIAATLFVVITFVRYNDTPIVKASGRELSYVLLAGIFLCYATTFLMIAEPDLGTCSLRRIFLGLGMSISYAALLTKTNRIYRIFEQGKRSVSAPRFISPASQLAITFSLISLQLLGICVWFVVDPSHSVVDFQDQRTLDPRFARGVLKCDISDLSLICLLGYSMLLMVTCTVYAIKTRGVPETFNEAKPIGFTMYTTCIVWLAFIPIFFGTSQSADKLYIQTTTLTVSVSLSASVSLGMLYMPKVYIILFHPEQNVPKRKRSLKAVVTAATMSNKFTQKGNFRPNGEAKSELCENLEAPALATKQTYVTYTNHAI

`Cc1nsc2ccc(Nc3n[nH]c4cccnc34)cc12` [Example 1, 3-methyl-N-(1H-pyrazolo[4,3-b]pyridin-3-yl)benzo[d]isothiazol-5-amine]: the EC50 reads like this: under setting [1], 187 nM; under setting [2], 187 nM.

For `CC(C)(C)Cc1nsc2cc(Nc3n[nH]c4cccnc34)ccc12` [Example 2, 3-neopentyl-N-(1H-pyrazolo[4,3-b]pyridin-3-yl)benzo[d] isothiazol-6-amine], the half-maximal effective concentration (EC50) is 284 nM under setting [1] and 284 nM under setting [2].

As to `O=C(c1nsc2cc(Nc3n[nH]c4cccnc34)ccc12)N1CCC(F)(F)C1` [Example 3, (6-((1H-pyrazolo [4,3-b]pyridin-3-yl)amino)benzo[d]isothiazol-3-yl) (3,3-difluoropyrrolidin-1-yl) methanone], the EC50 is, setting by setting: under setting [1], 325 nM; under setting [2], 325 nM.

As to `O=C(NC1CC(F)(F)C1)c1nsc2cc(Nc3n[nH]c4cccnc34)ccc12` [Example 4, 6-((1H-pyrazolo[4,3-b]pyridin-3-yl)amino)-N-(3,3-difluorocyclobutyl)benzo[d] isothiazole-3-carboxamide], the EC50 was 32 nM under setting [1] and 32 nM under setting [2].

For the molecule `O=C(c1nsc2cc(Nc3n[nH]c4cccnc34)ccc12)N1CCC(F)(F)CC1` [Example 5, (6-((1H-pyrazolo[4,3-b]pyridin-3-yl)amino)benzo[d]isothiazol-3-yl) (4,4-difluoropiperidin-1-yl) methanone], the concentration giving a half-maximal response (EC50) came out at 60 nM under setting [1] and 60 nM under setting [2].

`O=C(c1nsc2cc(Nc3n[nH]c4cccnc34)ccc12)N1CCOCC1` [Example 6, (6-((1H-pyrazolo [4,3-b]pyridin-3-yl)amino)benzo[d]isothiazol-3-yl)(morpholino) methanone]: the EC50 is, setting by setting: under setting [1], 303 nM; under setting [2], 303 nM.

For the molecule `CC1CN(C(=O)c2nsc3cc(Nc4n[nH]c5cccnc45)ccc23)CC(C)O1` (stereo not shown) [Example 7, (6-((1H-pyrazolo [4,3-b]pyridin-3-yl)amino)benzo[d]isothiazol-3-yl) (2,6-dimethyl-morpholino) methanone], the EC50 under setting [1] is 306 nM and the EC50 under setting [2] turned out to be 306 nM.

Regarding `O=C(c1nsc2cc(Nc3n[nH]c4cccnc34)ccc12)N1CCS(=O)(=O)CC1` [Example 8, (6-((1H-pyrazolo [4,3-b]pyridin-3-yl)amino)benzo[d]isothiazol-3-yl)(1,1-dioxido-thiomorpholino) methanone], the 50% effective concentration (EC50) by setting is: under setting [1], 136 nM; under setting [2], 136 nM.

Take `O=C(c1nsc2cc(Nc3n[nH]c4cccnc34)ccc12)N1CCCC(F)(F)C1` [Example 9, (6-((1H-pyrazolo [4,3-b]pyridin-3-yl)amino)benzo[d]isothiazol-3-yl) (3,3-difluoropiperidin-1-yl)methanone]: the EC50 under setting [1] was 233 nM and the EC50 under setting [2] is 233 nM.

As to `O=C(c1nsc2cc(Nc3n[nH]c4cccnc34)ccc12)N1CCCC1` [Example 10, (6-((1H-pyrazolo [4,3-b]pyridin-3-yl)amino)benzo[d]isothiazol-3-yl) (pyrrolidin-1-yl) methanone], the EC50 was found to be 1340 nM under setting [1] and 1340 nM under setting [2].

For the molecule `O=C(c1nsc2cc(Nc3n[nH]c4cccnc34)ccc12)N1CCCC1c1ccccn1` (stereo not shown) [Example 11, (6-((1H-pyrazolo [4,3-b]pyridin-3-yl)amino)benzo[d]isothiazol-3-yl)(2-(pyridin-2-yl)pyrrolidin-1-yl) methanone], the concentration giving a half-maximal response (EC50) is greater than 10000 nM under setting [1] and greater than 10000 nM under setting [2].

Turning to `CN1CCN(C(=O)c2nsc3cc(Nc4n[nH]c5cccnc45)ccc23)CC1` [Example 12, (6-((1H-pyrazolo [4,3-b]pyridin-3-yl)amino)benzo[d]isothiazol-3-yl)(4-methylpiperazin-1-yl) methanone], the half-maximal effective concentration (EC50) came out at 1140 nM under setting [1] and 1140 nM under setting [2].

For the molecule `O=C(c1nsc2cc(Nc3n[nH]c4cccnc34)ccc12)N1CCN2CCCC2C1` (stereo not shown) [Example 13, (6-((1H-pyrazolo [4,3-b]pyridin-3-yl)amino)benzo[d]isothiazol-3-yl)(hexahydropyrrolo [1,2-a]pyrazin-2(1H)-yl)methanone], the half-maximal effective concentration (EC50) reads like this: under setting [1], 1610 nM; under setting [2], 1610 nM.

`O=C(c1nsc2cc(Nc3n[nH]c4cccnc34)ccc12)N1CCC(N2CCOCC2)C1` (stereo not shown) [Example 14, (6-((1H-pyrazolo[4,3-b]pyridin-3-yl)amino)benzo[d]isothiazol-3-yl) (3-morpholinopyrrolidin-1-yl)methanone]: the EC50 is, setting by setting: under setting [1], 3450 nM; under setting [2], 3450 nM.

Consider `CN(C(=O)c1nsc2cc(Nc3n[nH]c4cccnc34)ccc12)C1CC(F)(F)C1` [Example 15, 6-((1H-pyrazolo[4,3-b]pyridin-3-yl)amino)-N-(3,3-difluorocyclobutyl)-N-methylbenzo[d] isothiazole-3-carboxamide], for which the concentration for a half-maximal effect (EC50) stood at 164 nM under setting [1] and 164 nM under setting [2].

As for `O=C(c1nsc2cc(Nc3n[nH]c4cccnc34)ccc12)N1CCSCC1` [Example 16, (6-((1H-pyrazolo [4,3-b]pyridin-3-yl)amino)benzo[d]isothiazol-3-yl)(thiomorpholino) methanone], the EC50 turned out to be 85 nM under setting [1] and 85 nM under setting [2].

As to `O=C(c1nsc2cc(Nc3n[nH]c4cccnc34)ccc12)N1CCCOCC1` [Example 17, (6-((1H-pyrazolo[4,3-b]pyridin-3-yl)amino)benzo[d]isothiazol-3-yl)(1,4-oxazepan-4-yl)methanone], the half-maximal effective concentration (EC50) runs as follows: under setting [1], 607 nM; under setting [2], 607 nM.

Consider `CC1CC(C)CN(C(=O)c2nsc3cc(Nc4n[nH]c5cccnc45)ccc23)C1` (stereo not shown) [Example 18, (6-((1H-pyrazolo [4,3-b]pyridin-3-yl)amino)benzo[d]isothiazol-3-yl)(3,5-dimethylpiperidin-1-yl) methanone], for which the half-maximal effective concentration (EC50) under setting [1] was 517 nM and the EC50 under setting [2] was 517 nM.

Regarding `CC1CCN(C(=O)c2nsc3cc(Nc4n[nH]c5cccnc45)ccc23)CC1` [Example 19, (6-((1H-pyrazolo [4,3-b]pyridin-3-yl)amino)benzo[d]isothiazol-3-yl) (4-methylpiperidin-1-yl)methanone], the EC50 runs as follows: under setting [1], 408 nM; under setting [2], 408 nM.

For `O=C(c1nsc2cc(Nc3n[nH]c4cccnc34)ccc12)N1CCC(F)CC1` [Example 20, (6-((1H-pyrazolo [4,3-b]pyridin-3-yl)amino)benzo [d]isothiazol-3-yl) (4-fluoropiperidin-1-yl)methanone], the EC50 is 249 nM under setting [1] and 249 nM under setting [2].

Turning to `O=C(c1nsc2cc(Nc3n[nH]c4cccnc34)ccc12)N1CCC(C(F)(F)F)CC1` [Example 21, (6-((1H-pyrazolo [4,3-b]pyridin-3-yl)amino)benzo[d]isothiazol-3-yl) (4-(trifluoromethyl)piperidin-1-yl) methanone], the EC50 under setting [1] came to 50 nM and the EC50 under setting [2] stood at 50 nM.

Regarding `CC(C)(C)Cc1nsc2cc(Nc3n[nH]c4ncccc34)ccc12` [Example 22, 3-neopentyl-N-(1H-pyrazolo[3,4-b]pyridin-3-yl)benzo[d] isothiazol-6-amine], the EC50 is, setting by setting: under setting [1], 884 nM; under setting [2], 884 nM.

For the molecule `CCCc1nsc2cc(Nc3n[nH]c4cccnc34)ccc12` [Example 23, 3-propyl-N-(1H-pyrazolo [4,3-b]pyridin-3-yl)benzo[d]isothiazol-6-amine], the EC50 is, setting by setting: under setting [1], 56 nM; under setting [2], 56 nM.
